The source of these data is patent publication US20190381086A1, “INHIBITION OF NEDDYLATION USING GLYCYL-tRNA SYNTHETASE INHIBITORS” (The Scripps Research Institute, priority 2015, published 2019).

In one data set the test system is SF-268. Type of data set: cell-based. Conditions: SF-268, CNS Cancer.
The test system of the next data set is KM12. The experiment in a line: NCI 60 Cell One-Dose Screen. Conditions: KM12, Colon Cancer; single dose 10^-5 M. Type of data set: cell-based, human.
The next data set deals with HOP-92. Type of data set: cell-based. Conditions: HOP-92, Non-Small Cell Lung Cancer.
The next data set concerns T-47D. Nature of the data set: NCI 60 Cell One-Dose Screen. Type of data set: cell-based, human. Conditions: Breast Cancer, single dose 10^-5 M.
The next data set relates to HCT-15. Type of data set: cell-based. Conditions: HCT-15, Colon Cancer.
[1] abbreviates: Homo sapiens, read-out: LC50 (the source's name).

Bounds are passed on as bounds.

The term GI50 denotes the concentration giving 50% growth inhibition. On to `NCC(=O)NS(=O)(=O)OC[C@H]1O[C@@H](n2cnc3c(N)ncnc32)[C@H](O)[C@@H]1O` [GlySA, glycylsulfamoyladenosine], for which the GI50 in the data set with SF-268 (Homo sapiens) worked out at 501 nM; in the data set on HOP-92 (Homo sapiens) it was 2950 nM; with HCT-15 (Homo sapiens), 2950 nM. Besides, the LC50/GI50 with SF-268 was greater than 199.5; in the data set with HOP-92 it was 9.3; in the data set with HCT-15 it was 27.5. Besides, the entries for the “Growth inhibition count (%)” value in the data set with KM12 and with T-47D were 0.7347% and 7.656%, respectively. Besides, the CC50 in the data set with HOP-92 (setting [1]) came out at 27500 nM; in the data set with HCT-15 (setting [1]) it was 81300 nM.
